Data taken from patent US9790235B2, “MK2 inhibitors and uses thereof” (Celgene CAR LLC, priority 2014, dated 2017).
Where two headings read alike, the source gives them in different places.

Experiments:
[1] = molecular target: p38α activated, mitogen-activated protein kinase-activated protein kinase 2 (MAPKAP-K2 or MK2) enzyme (Homo sapiens (Human), UniProt P49137); assay: MK2 Omnia continuous-read kinase assay for compound potency; assay type: biochemical
Procedure, shortened: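 Activated MK2 (0.4 nM) was run with S/T3-Sox peptide and ATP, each at 10 μM (ATP at apparent KM), and Sox fluorescence was followed every 71 s for 2 h at room temperature. IC50 came from linear initial rates after no-enzyme subtraction, and apparent kinact/KI from kobs of single-exponential fits.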

MK2 [2] = molecular target: T1, MK2 (Homo sapiens (Human), UniProt P49137); assay: MK2 cellular assay, total and phospho-Hsp27 (Serine 78) by MSD ELISA (Thp1); assay type: cell-based
T1 sequence (P49137 whole entry): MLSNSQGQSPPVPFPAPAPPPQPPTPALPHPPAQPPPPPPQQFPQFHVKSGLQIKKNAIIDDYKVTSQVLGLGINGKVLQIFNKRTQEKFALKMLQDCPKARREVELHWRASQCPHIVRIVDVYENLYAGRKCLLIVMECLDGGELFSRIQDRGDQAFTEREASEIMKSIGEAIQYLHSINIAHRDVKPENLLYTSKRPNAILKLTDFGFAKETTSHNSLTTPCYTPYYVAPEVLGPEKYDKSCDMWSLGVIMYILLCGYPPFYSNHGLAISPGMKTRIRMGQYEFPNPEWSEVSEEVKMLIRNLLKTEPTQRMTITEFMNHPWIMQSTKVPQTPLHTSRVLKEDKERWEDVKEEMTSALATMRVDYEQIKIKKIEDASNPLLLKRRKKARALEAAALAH
Procedure, shortened: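 PMA-differentiated (10 ng/mL, 72 h) Thp-1 cells were pretreated with compound (top 3000 nM) for 1 h at 37 °C, then stimulated with 50 ng/mL LPS for 45 min. Lysate phospho-Hsp27 (Ser78) and total Hsp27 were read by MSD electrochemiluminescence ELISA, and the value is expressed as percent phospho/total signal per well.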

MK2 [3] = molecular target: T1, MK2
Description: Aliquots of the resulting mixture (6 μL each) were diluted with 0.2% trifluoroacetic acid (TFA, 10 μL) prior to micro C4 ZipTipping directly onto the MALDI target using sinapinic acid as the desorption matrix (10 mg/ml in 0.1% TFA:acetonitrile 50:50, v/v). The centroid mass of the target protein in the control sample was compared with the centroid mass of the target protein incubated with compound. A shift in the centroid mass of the treated protein compared to the untreated protein was divided by the molecular weight of the compound. This number corresponds to the percentage of modified protein (a measure of the proportion of total target protein covalently bound to the test compound) after one hour incubation.
3 μL of magnetic Ni-NTA beads were added to the 6 μL aliquots of sample, washed, eluted with 0.2% trifluoroacetic acid (TFA, 2 μL), and spotted directly onto the MALDI target using sinapinic acid as the desorption matrix (10 mg/ml in 0.1% TFA:acetonitrile 50:50, v/v). The centroid mass of the target protein in the control sample was compared with the centroid mass of the target protein incubated with compound. A shift in the centroid mass of the treated protein compared to the untreated protein was divided by the molecular weight of the compound. This number corresponds to the percentage of modified protein (a measure of the proportion of total target protein covalently bound to the test compound) after one hour incubation.

[4] = [MK-2]=0.4 nM, [ATP]=10 μM, [ST3-Sox]=10 μM, read-out: MK2 IC50
[5] = Thp-1 cells, 1 hour compound, 50 ng/mL LPS 45 minutes, p-HSP27 (Ser78)/total HSP27, read-out: pHSP27 signaling EC50
[6] = percentage of modified protein after 60 minutes at room temperature, 10-fold excess of compound, MALDI (I-1 to I-50), magnetic bead MALDI (I-51 to I-129)
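Throughout, for Mass Modification: covalent binding read from centroid mass shift of compound-treated versus untreated intact MK2, shift divided by compound molecular weight, giving fraction of total protein bound.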

Chain of p38α activated, mitogen-activated protein kinase-activated protein kinase 2 (MAPKAP-K2 or MK2) enzyme (P49137 whole entry): as above

| Structure (SMILES) | IC50 [1, 4] [nM] | EC50 (MK2 [2]; [5]) [nM] | Mass Modification (MK2 [3]; [6]) | IC50 ([1]; read-out: MK2 IC50) [nM] | Mass Modification (MK2 [3]) | IC50 [1] [nM] | EC50 (MK2 [2]) [nM] |
| --- | --- | --- | --- | --- | --- | --- | --- |
| COCCOc1nc(Cl)cc(Nc2ccc3c(ccc4sc5c(c43)NC[C@@H](C)NC5=O)n2)n1 [I-67, (R)-3-((6-chloro-2-(2-methoxyethoxy)pyrimidin-4-yl)amino)-10-methyl-9,10,11,12-tetrahydro-8H-[1,4]diazepino[5′,6′:4,5]thieno[3,2-f]quinolin-8-one] | < 100 | 101 to 500 | F (mass modification of 31-69%) |  |  |  |  |
| C[C@@H]1CNc2c(sc3ccc4nc(Oc5cc(Cl)nc(CO)n5)ccc4c23)C(=O)N1 [I-68, (R)-3-((6-chloro-2-(hydroxymethyl)pyrimidin-4-yl)oxy)-10-methyl-9,10,12-tetrahydro-8H-[1,4]diazepino[5′,6′:4,5]thieno[3,2-f]quinolin-8-one] | < 100 | < 100 | E (mass modification of ≧70%) |  |  |  |  |
| COC(=O)c1nc(Cl)cc(Nc2ccc3c(ccc4sc5c(c43)NC[C@@H](C)NC5=O)n2)n1 [I-70, (R)-methyl 4-chloro-6-((10-methyl-8-oxo-9,10,11,12-tetrahydro-8H-[1,4]diazepino[5′,6′:4,5]thieno[3,2-f]quinolin-3-yl)amino)pyrimidine-2-carboxylate] |  | < 100 |  | < 100 | E (key: E: mass modification of ≧70%; F: mass modification of 31-69%; G: mass modification ≦30%) |  |  |
| COC(=O)c1nc(Cl)cc(Oc2ccc3c(ccc4sc5c(c43)NC[C@@H](C)NC5=O)n2)n1 [I-71, (R)-methyl 4-chloro-6-((10-methyl-8-oxo-9,10,11,12-tetrahydro-8H-[1,4]diazepino[5′,6′:4,5]thieno[3,2-f]quinolin-3-yl)oxy)pyrimidine-2-carboxylate] | < 100 | < 100 | E (mass modification of ≧70%) |  |  |  |  |
| C[C@@H]1CNc2c(sc3ccc4nc(Sc5ccnc(Cl)n5)ccc4c23)C(=O)N1 [I-72, (R)-3-((2-chloropyrimidin-4-yl)thio)-10-methy-9,10,11,12-tetrahydro-8H-[1,4]diazepino[5′,6′:4,5]thieno[3,2-f]quinolin-8-one] | < 100 | > 1000 | G (mass modification ≦30%) |  |  |  |  |
| C[C@@H]1CNc2c(sc3ccc4nc(Nc5cc(F)nc(CN6CCN(C)CC6)n5)ccc4c23)C(=O)N1 [I-73, (R)-3-((6-fluoro-2-((4-methylpiperazin-1-yl)methyl)pyrimidin-4-yl)amino)-10-methyl-9,10,11,12-tetrahydro-8H-[1,4]diazepino[5′,6′:4,5]thieno[3,2-f]quinolin-8-one] | < 100 | > 1000 | G (mass modification ≦30%) |  |  |  |  |
| C[C@@H]1CNc2c(sc3ccc4nc(Nc5cc(F)nc(CN6CCCCC6)n5)ccc4c23)C(=O)N1 [I-74, (R)-3-((6-fluoro-2-(piperidin-1-ylmethyl)pyrimidin-4-yl)amino)-10-methyl-9,10,11,12-tetrahydro-8H-[1,4]diazepino[5′,6′:4,5]thieno[3,2-f]quinolin-8-one] | < 100 | < 100 | E (mass modification of ≧70%) |  |  |  |  |
| C[C@@H]1CNc2c(sc3ccc4nc(Oc5nc(Cl)nc(N(C)C)n5)ccc4c23)C(=O)N1 [I-75, (R)-3-((4-chloro-6-(dimethylamino)-1,3,5-triazin-2-yl)oxy)-10-methyl-9,10,11,12-tetrahydro-8H-[1,4]diazepino[5′,6′:4,5]thieno[3,2-f]quinolin-8-one] | < 100 | < 100 | E (mass modification of ≧70%) |  |  |  |  |
| COc1nc(Cl)nc(Oc2ccc3c(ccc4sc5c(c43)NC[C@@H](C)NC5=O)n2)n1 [I-76, (R)-3-((4-chloro-6-methoxy-1,3,5-triazin-2-yl)oxy)-10-methyl-9,10,11,12-tetrahydro-8H-[1,4]diazepino[5′,6′:4,5]thieno[3,2-f]quinolin-8-one] | < 100 | > 1000 | E (mass modification of ≧70%) |  |  |  |  |
| C[C@@H]1CNc2c(sc3ccc4nc(Oc5cnnc(Cl)c5)ccc4c23)C(=O)N1 [I-79, (R)-3-((6-chloropyridazin-4-yl)oxy)-10-methyl-9,10,11,12-tetrahydro-8H-[1,4]diazepino[5′,6′:4,5]thieno[3,2-f]quinolin-8-one] | < 100 | 101 to 500 | E (mass modification of ≧70%) |  |  |  |  |
| C[C@@H]1CNc2c(sc3ccc4nc(Oc5nc(Cl)ncc5CN5CC6CC6C5)ccc4c23)C(=O)N1 (stereo partly drawn) [I-83, ((1OR)-3-((5-(3-azabicyclo[3.1.0]hexan-3-yl)methyl)-2-chloropyrimidin-4-yl)oxy)-10-methyl-9,10,11,12-tetrahydro-8H-[1,4]diazepino[5′,6′:4,5]thieno[3,2-f]quinolin-8-one] | 101 to 500 | < 100 | E (mass modification of ≧70%) |  |  |  |  |
| C[C@@H]1CNc2c(sc3ccc4nc(Oc5nc(Cl)ncc5CN5CC6CC(C6)C5)ccc4c23)C(=O)N1 [I-85, (R)-3-((5-((3-azabicyclo[3.1.1]heptan-3-yl)methyl)-2-chloropyrimidin-4-yl)oxy)-10-methyl-9,10,11,12-tetrahydro-8H-[1,4]diazepino[5′,6′:4,5]thieno[3,2-f]quinolin-8-one] |  |  | E (mass modification of ≧70%) |  |  | 101 to 500 | < 100 |
| C[C@@H]1CNc2c(sc3ccc4nc(Oc5nc(Cl)nc6c5COC6)ccc4c23)C(=O)N1 [I-86, (R)-3-((2-chloro-5,7-dihydrofuro[3,4-d]pyrimidin-4-yl)oxy)-10-methyl-9,10,11,12-tetrahydro-8H-[1,4]diazepino[5′,6′:4,5]thieno[3,2-f]quinolin-8-one] | < 100 | < 100 | E (mass modification of ≧70%) |  |  |  |  |
| COCCN(C)Cc1cnc(Cl)nc1Oc1ccc2c(ccc3sc4c(c32)NC[C@@H](C)NC4=O)n1 [I-90, (R)-3-((2-chloro-5-(((2-methoxyethyl)(methyl)amino)methyl)pyrimidin-4-yl)oxy)-10-methyl-9,10,11,12-tetrahydro-8H-[1,4]diazepino[5′,6′:4,5]thieno[3,2-f]quinolin-8-one] | 101 to 500 | < 100 | E (mass modification of ≧70%) |  |  |  |  |
| CCN1CCN(Cc2cnc(Cl)nc2Oc2ccc3c(ccc4sc5c(c43)NC[C@@H](C)NC5=O)n2)CC1 [I-94, (R)-3-((2-chloro-5-((4-ethylpiperazin-1-yl)methyl)pyrimidin-4-yl)oxy)-10-methyl-9,10,11,12-tetrahydro-8H-[1,4]diazepino[5′,6′:4,5]thieno[3,2-f]quinolin-8-one] | 101 to 500 | > 1000 | E (mass modification of ≧70%) |  |  |  |  |
| C[C@@H]1CNc2c(sc3ccc4nc(Oc5nc(Cl)ncc5CN5CCCC(C)(C)C5)ccc4c23)C(=O)N1 [I-95, (R)-3-((2-chloro-5-((3,3-dimethylpiperidin-1-yl)methyl)pyrimidin-4-yl)oxy)-10-methyl-9,10,11,12-tetrahydro-8H-[1,4]diazepino[5′,6′:4,5]thieno[3,2-f]quinolin-8-one] | 101 to 500 | < 100 | E (mass modification of ≧70%) |  |  |  |  |
| C[C@@H]1CNc2c(sc3ccc4nc(Oc5nc(Cl)ncc5COC5(C)COC5)ccc4c23)C(=O)N1 [I-103, (R)-3-((2-chloro-5-(((3-methyloxetan-3-yl)oxy)methyl)pyrimidin-4-yl)oxy)-10-methyl-9,10,11,12-tetrahydro-8H-[1,4]diazepino[5′,6′:4,5]thieno[3,2-f]quinolin-8-one] | < 100 | 101 to 500 | E (mass modification of ≧70%) |  |  |  |  |
| C[C@@H]1CNc2c(sc3ccc4nc(Oc5nc(Cl)nc6c5CS(=O)(=O)CC6)ccc4c23)C(=O)N1 [I-105, (R)-3-((2-chloro-6,6-dioxido-7,8-dihydro-5H-thiopyrano[4,3-d]pyrimidin-4-yl)oxy)-10-methyl-9,10,11,12-tetrahydro-8H-[1,4]diazepino[5′,6′:4,5]thieno[3,2-f]quinolin-8-one] | < 100 | 101 to 500 | E (mass modification of ≧70%) |  |  |  |  |
| CO[C@@H]1CCCN(Cc2cnc(Cl)nc2Oc2ccc3c(ccc4sc5c(c43)NC[C@@H](C)NC5=O)n2)C1 [I-107, (R)-3-((2-chloro-5-(((R)-3-methoxypiperidin-1-yl)methyl)pyrimidin-4-yl)oxy)-10-methyl-9,10,11,12-tetrahydro-H-[1,4]diazepino[5′,6′:4,5]thieno[3,2-f]quinolin-8-one] | 101 to 500 | < 100 | E (mass modification of ≧70%) |  |  |  |  |
| C[C@@H]1CNc2c(sc3ccc4nc(Oc5nc(Cl)ncc5COCCC#N)ccc4c23)C(=O)N1 [I-111, (R)-3-((2-chloro-4-((10-methyl-8-oxo-9,10,11,12-tetrahydro-8H-[1,4]diazepino[5′,6′:4,5]thieno[3,2-f]quinolin-3-yl)oxy)pyrimidin-5-yl)methoxy)propanenitrile] | < 100 | 101 to 500 | E (mass modification of ≧70%) |  |  |  |  |
| C[C@@H]1CNc2c(sc3ccc4nc(Oc5nc(Cl)ncc5CS(C)(=O)=O)ccc4c23)C(=O)N1 [I-112, (R)-3-((2-chloro-5-((methylsulfonyl)methyl)pyrimidin-4-yl)oxy)-10-methyl-9,10,11,12-tetrahydro-8H-[1,4]diazepino[5′,6′:4,5]thieno[3,2-f]quinolin-8-one] | < 100 | 101 to 500 | E (mass modification of ≧70%) |  |  |  |  |
